Assay results published in PMC5826917, “A small molecule inhibitor of Nicotinamide N-methyltransferase for the treatment of metabolic disorders” (Scientific Reports, 2018).
pIC50: −log10 of the molar value.

Tests used:
[1] = test system: mice on a high-fat diet; parameters: method as in PMID 29155147; conditions: treatment period of 12 days; cited from earlier work
[2] = test system: db/db mice; assay: Chronic efficacy study in db/db mice; conditions: db/db mice
Description: Samples for MNA were analyzed employing a fit-for-purpose LC-MS/MS method. PE-Sciex API-4000 triple quadrupole (PerkinElmerSciex Instruments, Boston, MA) mass spectrometer was employed for this analysis. Samples (5 µL) were injected onto Kinetex HILIC (50 × 4.6 mm, 2.6 µm; Phenomenex, Torrance, CA, USA) column connected to Shimadzu VP (Shimadzu, Japan) LC system. The gradient mobile phase mixture of 0.2% formic acid and acetonitrile was delivered at a flow rate of 0.45 ml min-1 into the mass spectrometer electrospray ionization (ESI) chamber. Quantitation was achieved by MS/MS detection in positive ion mode for MNA and internal standard (d4–MNA). Detection of the ions was performed in the multiple reaction monitoring (MRM) mode, monitoring the transition of the m/z 137 precursor ion to the m/z 92 product ion for MNA and m/z 141 precursor ion to the m/z 84 product ion for d4-MNA (internal standard).
A simple protein precipitation extraction method was followed for extraction of N-methylnicotinamide from plasma and various tissue homogenate samples. The tissue samples were homogenized with 1:3 proportions of phosphate buffer saline (PBS) and this homogenate was used for N-Methylnicotinamide determinations. To an aliquot of ~50 μL of plasma/ liver homogenate/ adipose tissue homogenate samples ~300 µl of acetonitrile containing IS (d4-MNA) solution was added, followed by vortex for ~3 minutes and centrifuged for 10 minutes at 14,000 rpm. The supernatant was separated and transferred to pre-labeled HPLC vials and analyzed by LC-MS/MS system.
Samples for methylated JBSNF-000088 were analyzed employing a fit-for-purpose LC-MS/MS method. PE-Sciex API-5500 triple quadrupole (PerkinElmerSciex Instruments, Boston, MA) mass spectrometer was employed for this analysis. Samples (2 µL) were injected onto Atlantis dC18 (50 × 4.6 mm, 3 µm; Waters, Milford, MA, USA) column connected to Shimadzu VP (Shimadzu, Japan) LC system. The gradient mobile phase mixture of 0.2% formic acid and acetonitrile was delivered at a flow rate of 0.9 mL min-1 into the mass spectrometer electrospray ionization (ESI) chamber. Quantitation was achieved by MS/MS detection in positive ion mode for methylated JBSNF-000088 and internal standard (Tolbutamide). Detection of the ions was performed in the multiple reaction monitoring (MRM) mode, monitoring the transition of the m/z 168 precursor ion to the m/z 128.8, product ion for MNA and m/z 271 precursor ion to the m/z 91 product ion for tolbutamide (internal standard).
Male C57BL6/N (Vivo Bio Tech Ltd, India), ob/ob (B6.V-Lepob/OlaHsd) and its lean control (Envigo laboratories Inc, USA) and db/db (BKS.Cg- + Leprdb/ + Leprdb/OlaHsd) and its lean control (Envigo laboratories Inc, USA) were housed in individually ventilated cages (n = 5/cage) under standard laboratory conditions. The study room environment was maintained at a temperature of 21–24 °C and, relative humidity at 40–70%. The animal rooms were maintained under 12 h light and dark cycle. Animals were provided with ad libitum access to water and food (except where noted otherwise, e.g. during fasting prior for glucose tolerance tests, fasting prior to terminal sacrifice). Animals were acclimatized for 1 week before initiation of studies. For Diet induced obesity (DIO) mice study, C57BL6/N mice were maintained on rodents chow diet (Teklad; Harlan) or HFD (60% Kcal; Research diet) for 14 weeks before study initiation and throughout the study period. ob/ob and db/db mice and their lean controls were maintained on rodents chow diet (Teklad; Harlan). All the experiments were approved by Institutional Animal Ethics Committee (IAEC) of Jubilant Biosys Ltd, India.
Lean control + Vehicle and HFD + Vehicle Control groups (G1 and G2) mice were administered with vehicle.

[3] = target: T1, NNMT (Homo sapiens, UniProt P40261); assay: NNMT inhibition by the N-methylated product; format: biochemical
T1 sequence (P40261 1-264): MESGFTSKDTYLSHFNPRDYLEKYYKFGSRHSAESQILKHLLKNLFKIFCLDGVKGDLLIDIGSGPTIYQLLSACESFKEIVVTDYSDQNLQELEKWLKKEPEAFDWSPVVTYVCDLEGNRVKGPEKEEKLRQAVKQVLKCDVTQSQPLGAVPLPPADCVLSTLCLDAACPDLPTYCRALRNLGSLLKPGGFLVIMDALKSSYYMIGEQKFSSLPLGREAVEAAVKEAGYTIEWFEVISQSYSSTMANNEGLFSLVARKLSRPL

[4] = test system: db/db mice; parameters: method as in PMID 12217892, PMID 25256010; conditions: two weeks of treatment at 100 µg/kg bid; cited from earlier work

## C[n+]1cccc2c(N)cccc21 [5-Amino-1-methylquinoline]
[1]
  body weight: causes weight loss at preserved food intake

## COc1ccc(C(N)=O)c[n+]1C [N-methylated product of JBSNF-000088, -carbamoyl-2-methoxy-1-methylpyridin-1-ium trifluoromethanesulfonate]
[2]
  detection of methylated compound after oral administration of JBSNF-000088: could be detected in plasma and adipose tissue
[3]
  pIC50: < 4.52
[3]; at 30 µM
  inhibition at 30 µM: 20%

## liraglutide
[4]
  effect on body weight: no effect on body weight
  influence on glucose homeostasis: moderate influence on glucose homeostasis
